Holding throughout (assay type): in vivo
Data set [1] concerns larvae of brown planthopper (Nilaparvata lugens Stahl). In words: Test Example 1: insecticidal activity against larvae of brown planthopper. The settings on record: third-instar larvae, 25° C. In outline:
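Rice seedlings at 1.5-leaf stage were dipped for 30 s in a 400 ppm test composition, air-dried, and infested with third-instar N. lugens larvae. After holding at 25 °C, mortality was scored 5 or 7 days post-treatment from three replicates.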

In data set [2] the test system is larvae of white-backed planthopper (Sogatella furcifera Horvath). In words: Test Example 2: insecticidal activity against larvae of white-backed planthopper. Conditions: 168 h, 400 ppm, first-instar larvae, 25° C., seven days after treatment, read-out: Mortality. On the procedure: Insecticidal activity against larvae of white-backed planthopper (Sogatella furcifera Horvath).
Testing method: Five rice seedlings of the 1.5 leaf age were dipped in a test composition of 400 ppm concentration for 30 seconds. After air-drying, the seedlings were placed in a glass tube containing 1 ml of water and infested with five first-instar larvae of white-backed planthopper. The glass tube was left standing in a constant temperature cabinet at 25° C. and seven days after the treatment, dead-and-survival was observed. Mortality was calculated from the results of 3-replication test.

Data set [3] relates to two-spotted spider mite (Tetranychus urticae Koch). In words: Test Example 3: activity to two-spotted spider mite. From the text: Activity to two-spotted spider mite (Tetranychus urticae Koch).
Testing method: Two-spotted spider mites were set free on the pot-planted soybean in a greenhouse. On the next day, a test composition of 1,000 ppm concentration was sprayed over the soybean by means of a spray gun. Two days or five days after the treatment, dead-and-survival was inspected to calculate the mortality.

For data set [4], the system named is cirrus red mite (Panonychus citri McGregor). Briefly: Test Example 4: activity to citrus red mite (Rothamstead method). Also on record: concentration or dose not given beside the values. The settings on record: two days after treatment, 25° C.; 2880 min. On the procedure:
Activity to cirrus red mite (Panonychus citri McGregor).
Testing method: The test was performed by Rothamstead method. A test composition was sprayed by means of a spray gun over grapefruit leaves infested with citrus red mites. After air-drying the grapefruit was left standing in a constant temperature cabinet at 25° C. Two days after the treatment, the number of survived mites was counted to calculate the mortality.

Data set [5] relates to larvae of green rice leafhopper (Nephotettix cincticeps Uhler). Briefly: Test Example 5: activity against larvae of green rice leafhopper. The settings on record: 168 h, 400 ppm, second-instar larvae, 25° C., seven days after treatment, read-out: Mortality. On the procedure: Activity against larvae of green rice leafhopper (Nephotettix cincticeps Uhler).
Testing method: Five rice seedlings of the 1.5 leaf age were dipped in a test composition of 400 ppm concentration for 30 seconds. After air-drying, the seedlings were placed in a glass tube containing 1 ml of water and infested with five second-instar larvae of green rice leafhopper. The glass tube was left standing in a constant temperature cabinet at 25° C. Seven days after the treatment, dead-and-survivalwas inspected to calculate the mortality (3-replication test).

Data set [6] concerns larvae of house mosquito (Culex pipiens pallens Coquillett). In words: Test Example 6: insecticidal activity to larvae of house mosquito. The settings on record: 120 h. Here is the method: Insecticidal activity to larvae of house mosquito (Culex pipiens pallens Coquillett).
Test method: In a 200-ml beaker, was placed together with a feed 100 ml of a test composition diluted with deionized water to 10 ppm concentration. The test composition was infested with 20 first-instar larvae of house mosquito and the beaker was covered with a sheet of Japanese paper. The beaker was kept in a constant temperature cabinet at 25° C. Five days after the treatment, the dead-and-survival was inspected to calculate the mortality.

The subject of data set [7] is larvae of 28-spotted lady beetle (Epilachna vigintioctopunctana Fabricius). Briefly: Test Example 8: insecticidal activity against larvae of 28-spotted lady beetle. Conditions: 120 h. On the procedure:
Insecticidal activity against larvae of 28-spotted lady beetle (Epilachna vigintioctopunctana Fabricius).
Testing method: Leaflets of tomato grown in a greenhouse were dipped in a test composition of 100 ppm concentration for 30 seconds and after that the leaflets were dried by air. In a Petri dish covered on the bottom with a piece of filter paper, were introduced 1 ml of water and three treated tomato leaflets. After having been infested with seven second-instar larvae of 28-spotted lady beetle, the Petri dish was left standing in a constant temperature cabinet at 25° C. Five days after the treatment, the dead-and-survival was inspected to calculate the mortality (2-replication test).

[8] abbreviates: 48 h, 1,000 ppm, 2 days after treatment.
The mark [9] stands for this setting: 120 h, 1,000 ppm, 5 days after treatment.

What is called mortality is the share of the test organisms that died. Regarding `CC(C)N=C1SCN(C)C(=O)N1C(C)C` [Compound 2, 2-Isopropylimino-3-isopropyl-5-methyl-tetrahydro-1,3,5-thiadiazin-4-one], the mortality at 400 ppm is 100% in data set [1] (168 h, 7 days after treatment); 100% in data set [2]; 50% in data set [5]. Further, the mortality at 1000 ppm in data set [3] (setting [8]) came to 100%. Also, in data set [4], the Mortality turned out to be 50%.

On to `CCN1CSC(=NC(C)(C)C)N(C)C1=O` [Compound 6], for which the mortality at 400 ppm was determined as 100% in data set [1] (168 h, 7 days after treatment); 100% in data set [2]; 80% in data set [5]. For the same compound, the mortality at 1000 ppm in data set [3] (setting [8]) came out at 100%. In addition, the Mortality in data set [4] was found to be 80%.

In the case of `CCN1CSC(=NC(C)C)N(C(C)C)C1=O` [Compound 8], the mortality at 400 ppm in data set [1] (168 h, 7 days after treatment) was 100%; in data set [2], 100%; in data set [5], 80%. The compound also registered a mortality at 1000 ppm in data set [3] (setting [8]) of 100%. The Mortality in data set [4] came to 80%.

Take `C=CCN1CSC(=NC)N(C)C1=O` [Compound 9]: the mortality at 400 ppm stood at 100% in data set [1] (168 h, 7 days after treatment); 100% in data set [2]; 100% in data set [5]. The compound further registered a mortality at 1000 ppm in data set [3] (setting [8]) of 80%. The compound further showed a Mortality in data set [4] of 50%.

On to `C=CCN1CSC(=NC(C)C)N(C)C1=O` [Compound 10], for which the mortality at 400 ppm turned out to be 100% in data set [1] (168 h, 7 days after treatment); 100% in data set [2]; 100% in data set [5]. The mortality at 1000 ppm in data set [3] (setting [8]) worked out at 100%. The compound also came in with a Mortality in data set [4] of 80%.

On to `CCCN1CSC(=NC(C)C)N(C(C)C)C1=O` [Compound 14], for which the mortality at 400 ppm in data set [1] (168 h, 7 days after treatment) amounted to 80%; in data set [2], 100%; in data set [5], 100%. The same compound displayed a mortality at 1000 ppm in data set [3] (setting [8]) of 100%. The Mortality in data set [4] is 50%.

On to `CN=C1SCN(C(C)C)C(=O)N1C` [Compound 16], for which the mortality at 400 ppm worked out at 100% in data set [1] (168 h, 7 days after treatment); 100% in data set [2]; 100% in data set [5]. Also, the mortality at 1000 ppm in data set [3] (setting [8]) worked out at 100%. In data set [4], this compound showed a Mortality of 100%.

As to `CN=C1SCN(c2ccccc2)C(=O)N1C` [Compound 115, 2-Methylimino-3-methyl-5-phenyl-tetrahydro-1,3,5-thiadiazin-4-one], in data set [4], the Mortality is 100%.

For the compound `CN1C(=N)SCN(c2ccccc2)C1=O` [Compound 123], the mortality at 400 ppm in data set [1] (5 or 7 days after treatment (No. 123 not covered by footnote)) is 100%. For the same compound, the Mortality in data set [4] was 100%.

Consider `Cc1ccccc1N=C1SCN(c2ccccc2)C(=O)N1C` [Compound 124, 2-(2-Methyl)phenylimino-3-methyl-5-phenyltetrahydro-1,3,5-thiadiazin-4-one], for which the Mortality in data set [4] stood at 100%.

As for `CCCCCCN1C(=O)N(c2ccccc2)CSC1=NC(C)C` [Compound 153], in data set [4], the Mortality was 100%. In addition, the mortality at 400 ppm in data set [5] was determined as 100%.

The compound `CCCCCCCCN1C(=O)N(c2ccccc2)CSC1=NC(C)CC` (stereo not shown) [Compound 161] showed a Mortality in data set [4] of 100%.

For `CC(C)N1C(=O)N(c2ccccc2Cl)CSC1=NC(C)(C)C` [Compound 245, 2-t-butylimino-3-isopropyl-5-(o-chlorophenyl)-tetrahydro-1,3,5-thiadiazin-4-one], the mortality at 400 ppm in data set [1] (120 h, 5 days after treatment) came to 100%; in data set [2], 100%; in data set [5] it was 100%. Also, in data set [3] (setting [9]), the mortality at 1000 ppm turned out to be 100%. In data set [6], the mortality at 10 ppm worked out at 100%. Further, the mortality at 100 ppm in data set [7] stood at 90%.

Turning to `CCCCCCN=C1SCN(c2ccc(F)cc2)C(=O)N1CCC` [Compound 281], in data set [4], the Mortality amounted to 100%.

Regarding `CCC(C)N=C1SCN(c2ccc(F)cc2)C(=O)N1C(C)CC` (stereo not shown) [Compound 283], the mortality at 400 ppm in data set [1] (120 h, 5 days after treatment) worked out at 100%; in data set [2], 100%; in data set [5], 90%. The compound further showed a mortality at 1000 ppm in data set [3] (setting [9]) of 70%. This compound also displayed a mortality at 10 ppm in data set [6] of 70%. The mortality at 100 ppm in data set [7] came to 90%.

Take `CCC(C)N1C(=O)N(c2ccc(F)cc2)CSC1=NC(C)(C)C` (stereo not shown) [Compound 284]: the mortality at 400 ppm was 100% in data set [1] (120 h, 5 days after treatment); 100% in data set [2]; 100% in data set [5]. This compound also had a mortality at 1000 ppm in data set [3] (setting [9]) of 100%. This compound also had a mortality at 10 ppm in data set [6] of 100%. Further, the mortality at 100 ppm in data set [7] came to 100%.

Take `CC(C)N=C1SCN(c2ccc(F)cc2)C(=O)N1C(C)C` [Compound 285]: the mortality at 400 ppm in data set [1] (120 h, 5 days after treatment) is 100%; in data set [2] it was 100%; in data set [5] it was 100%. The same compound showed a mortality at 1000 ppm in data set [3] (setting [9]) of 100%. The same compound yielded a mortality at 10 ppm in data set [6] of 100%. In data set [7], the mortality at 100 ppm came out at 80%.

Consider `CN=C1SCN(c2ccc(Br)cc2)C(=O)N1C` [Compound 291], for which the mortality at 400 ppm in data set [1] (120 h, 5 days after treatment) was found to be 100%; in data set [2], 100%; in data set [5], 100%. This compound displayed a mortality at 1000 ppm in data set [3] (setting [9]) of 100%. For the same compound, the mortality at 10 ppm in data set [6] stood at 70%. The mortality at 100 ppm in data set [7] came out at 100%.

As for `Cc1ccccc1N1CSC(=NC(C)(C)C)N(C(C)C)C1=O` [Compound 302], the mortality at 400 ppm in data set [1] (120 h, 5 days after treatment) came to 100%; in data set [2], 100%; in data set [5], 100%. The compound further yielded a mortality at 1000 ppm in data set [3] (setting [9]) of 70%. The compound also came in with a mortality at 10 ppm in data set [6] of 100%. For the same compound, the mortality at 100 ppm in data set [7] worked out at 80%.

Compound `CN=C1SCN(c2ccc(C)cc2)C(=O)N1C` [Compound 309] came in with a Mortality in data set [4] of 100%.

Consider `Cc1ccc(N2CSC(=NC(C)C)N(C)C2=O)cc1` [Compound 310], for which, in data set [4], the Mortality is 100%. Also, in data set [6], the mortality at 10 ppm amounted to 100%.

As for `CCC(C)N1C(=O)N(c2cccc(C)c2)CSC1=NC(C)(C)C` (stereo not shown) [Compound 328], the mortality at 400 ppm in data set [1] (120 h, 5 days after treatment) worked out at 90%; in data set [2], 100%; in data set [5], 100%. This compound also displayed a mortality at 1000 ppm in data set [3] (setting [9]) of 100%. Besides, the mortality at 10 ppm in data set [6] came out at 100%. In data set [7], this compound showed a mortality at 100 ppm of 100%.

As to `COc1ccc(N2CSC(=NC(C)(C)C)N(C(C)C)C2=O)cc1` [Compound 353, 2-t-Butylimino-3-isopropyl-5-(p-methoxyphenyl)tetrahydro-1,3,5-thiadiazin-4-one], the mortality at 400 ppm in data set [1] (120 h, 5 days after treatment) came to 100%; in data set [2] it was 100%; in data set [5] it was 100%. In addition, the mortality at 1000 ppm in data set [3] (setting [9]) worked out at 100%. The same compound yielded a mortality at 10 ppm in data set [6] of 100%. In data set [7], the mortality at 100 ppm came to 100%.

`CCC(C)N1C(=O)N(c2ccc(OC)cc2)CSC1=NC(C)(C)C` (stereo not shown) [Compound 355, 2-t-butylimino-3-s-butyl-5-(p-methoxyphenyl)-tetrahydro-1,3,5-thiadiazin-4-one]: the mortality at 400 ppm in data set [1] (120 h, 5 days after treatment) came out at 100%; in data set [2], 100%; in data set [5], 100%. Also, the mortality at 1000 ppm in data set [3] (setting [9]) amounted to 100%. Also, the mortality at 10 ppm in data set [6] worked out at 90%. The mortality at 100 ppm in data set [7] turned out to be 100%.

`CCOc1ccc(N2CSC(=NC(C)(C)C)N(C(C)CC)C2=O)cc1` (stereo not shown) [Compound 368, 2-t-Butylimino-3-s-butyl-5-(4-ethoxyphenyl)tetrahydro-1,3,5-thiadiazin-4-one]: the mortality at 400 ppm in data set [1] (120 h, 5 days after treatment) stood at 80%. Besides, the mortality at 1000 ppm in data set [3] (setting [9]) amounted to 100%. This compound also had a Mortality in data set [4] of 100%.
